In ChEMBL document CHEMBL5252592, “Design, synthesis, and biological activity evaluation of novel tubulin polymerization inhibitors based on pyrimidine ring skeletons” (Bioorg Med Chem Lett, 2023):

Columns and labels:
Type in all cases: functional, cell-based
HepG2 = experiment: Antiproliferative activity against human HepG2 cells assessed as inhibition of cell growth
Y79 = experiment: Antiproliferative activity against human Y79 cells assessed as inhibition of cell growth
A549 = experiment: Antiproliferative activity against human A549 cells assessed as inhibition of cell growth
U-937 = experiment: Antiproliferative activity against human U-937 cells assessed as inhibition of cell growth

Row | Structure (SMILES) | IC50 (HepG2) [µM] | IC50 (Y79) [µM] | IC50 (A549) [µM] | IC50 (U-937) [µM]
1 | COc1cc(Nc2cc(-c3ccc4ncccc4c3)ncn2)cc(OC)c1OC | > 10 | > 10 | > 10 | > 10
2 | COc1cc(Nc2nccc(-c3coc4ccccc34)n2)cc(OC)c1OC | 4.19 | > 10 | 3.83 | 3.52
3 | COc1cc(Nc2nccc(-c3ccc4[nH]c5ccccc5c4c3)n2)cc(OC)c1OC | 1.48 | > 10 | 3.12 | 0.9
4 | COc1cc(Nc2nccc(-c3ccc4cc[nH]c4c3)n2)cc(OC)c1OC | 0.37 | > 10 | 0.85 | 0.12
5 | COc1cc(Nc2cc(-c3cc4ccccc4s3)nc(N)n2)cc(OC)c1OC | > 10 | > 10 | > 10 | > 10
6 | COc1cc(Nc2nccc(-c3ccc4sc5ccccc5c4c3)n2)cc(OC)c1OC | > 10 | > 10 | > 10 | 7.17
7 | COc1cc(Nc2ccnc(-c3csc4ccccc34)n2)cc(OC)c1OC | 5.01 | > 10 | 3.06 | 1.54
8 | COc1cc(Nc2ccnc(-c3ccc4occc4c3)n2)cc(OC)c1OC | > 10 | > 10 | > 10 | > 10
9 | COc1cc(Nc2nccc(-c3csc4ccccc34)n2)cc(OC)c1OC | 3.98 | > 10 | > 10 | 1.78
10 | COc1cc(Nc2nccc(-c3cc4ccccc4o3)n2)cc(OC)c1OC | 1.22 | > 10 | 2.29 | 0.34
11 | COc1cc(Nc2nccc(-c3ccc4ncccc4c3)n2)cc(OC)c1OC | 0.84 | > 10 | 1.76 | 0.97
12 | COc1cc(Nc2ccnc(-c3ccc4ncccc4c3)n2)cc(OC)c1OC | > 10 | > 10 | > 10 | > 10
13 | COc1cc(Nc2cc(-c3ccc4c(c3)OCCO4)ncn2)cc(OC)c1OC | > 10 | > 10 | > 10 | > 10
14 | COc1cc(Nc2cc(-c3ccc4c(c3)OCCO4)nc(N)n2)cc(OC)c1OC | > 10 | > 10 | > 10 | > 10
15 | COc1cc(Nc2nccc(-c3ccc4occc4c3)n2)cc(OC)c1OC | 0.79 | > 10 | 1.76 | 0.04
16 | COc1cc(Nc2cc(-c3csc4ccccc34)nc(N)n2)cc(OC)c1OC | > 10 | > 10 | > 10 | > 10
17 | COc1cc(Nc2cc(-c3ccc4c(c3)CCO4)nc(N)n2)cc(OC)c1OC | > 10 | > 10 | > 10 | > 10
18 | COc1cc(Nc2cc(-c3ccc4c(c3)CCO4)ncn2)cc(OC)c1OC | > 10 | > 10 | > 10 | > 10
19 | COc1cc(Nc2ccnc(-c3cc4ccccc4s3)n2)cc(OC)c1OC | > 10 | > 10 | > 10 | > 10
20 | COc1cc(Nc2cc(-c3cc4ccccc4o3)ncn2)cc(OC)c1OC | > 10 | > 10 | > 10 | > 10
21 | COc1cc(Nc2cc(-c3cc4ccccc4o3)nc(N)n2)cc(OC)c1OC | > 10 | > 10 | > 10 | > 10
22 | COc1cc(Nc2ccnc(-c3ccc4cc[nH]c4c3)n2)cc(OC)c1OC | > 10 | > 10 | > 10 | > 10
23 | COc1cc(Nc2ccnc(-c3ccc4c(c3)CCO4)n2)cc(OC)c1OC | > 10 | > 10 | > 10 | > 10
24 | COc1cc(Nc2cc(-c3ccc4cc[nH]c4c3)nc(N)n2)cc(OC)c1OC | 2.51 | > 10 | 1.92 | 2.12
